Results on one compound are retold here after patent publication US20160345827A1, “TWO-PHOTON MICROSCOPY IMAGING RETINA CELL DAMAGE” (POLGENIX, INC., priority 2014, published 2016).

SMILES strings stand for the structures. Entries after “also recorded” stand apart in the source; their conditions may differ.

Test [1] relates to retinal explant tissue cultures. The test is classed as cell-based. Conditions: 6 h at 37° C, WT retinas. As to the method: FIGS. 6(A-B) illustrate images and a plot showing retinal degeneration is induced by atRAL in ex vivo retinal cultures. Retinas were removed from the eyecups of 4-wk-old C57BL/6J mice and cultured for 16 h at 37° C. Then retinas were incubated further with/without 30 μM of atRAL in the presence/absence of experimental drugs for 6 h at 37° C. Vehicle (DMSO), retinylamine (Ret-NH2) at 30 μM, or apocynin (Apo) at 300 μM was applied, together with atRAL. (A) Retinal morphology was examined after incubation with atRAL and with and without drugs. […] (B) TUNEL staining was performed with the ApoTag Peroxidase in Situ Apoptosis Detection Kit. Counter nuclear staining was accomplished with methyl green. […] (D) Retinas were removed from eyecups of 4-wk-old C57BL/6J mice and cultured with or without 30 μM of atRAL for 24 h at 37° C. After incubation, retinas were washed twice with PBS and then examined by TPM. Spectra from photoreceptor outer segments are shown (Left) along with representative magnified images (Right). Spectra from retinas cultured with atRAL featured a broad maximum absorption at 600 nm.
(§1) Eyes were enucleated, washed with a penicillin-streptomycin solution (Sigma), and rinsed with Hank's balanced salt solution (HyClone). Prepared mouse eyecups were flattened by creating retinal flaps. Flattened retinas were transferred onto filter paper and the retina was gently peeled off from the RPE/choroid. All these procedures were performed under a surgical microscope. Each retina on filter paper was placed into a well of a 12-well plate filled with 0.5 mL of DMEM (HyClone) with 10% FBS and incubated for 16 h at 37° C. Retinas then were washed twice with 0.5 mL of fresh DMEM containing 10% FBS and finally incubated again with/without 30 μM of atRAL for 6 h at 37° C. A lactate dehydrogenase (LDH) assay was performed to determine cellular death rates with a LDH activity assay kit (BioVision). The percentage of cytotoxicity was calculated as [(a retina with atRAL—a retina without atRAL)/(lysis control—a retina without atRAL)]×100.
The primary cause of acute retinal degeneration after bright light exposure in Abca4^−/−Rdh8^−/− mice is the delayed clearance of atRAL from photoreceptors. […] Thus, to examine whether retinal tissue lacking RPE cells can display degenerative changes similar to those observed in in vivo, we performed ex vivo culture experiments with retinal explants coincubated with atRAL. Neural retinas were dissected from eyes of 4-wk-old WT mice, and incubated with 30 μM of atRAL in the presence of control vehicle, 30 μM of retinylamine or 300 μM of apocynin for 6 h at 37° C. […] Cell death rates were calculated by measuring lactate dehydrogenase released into tissue culture supernatants from dying cells.

For test [2] the following is noted: after treatment with Ret-NH2; diminished 7 days after treatment; cited from earlier work.
Test [3] has as its system Abca4^−/−Rdh8^−/− (Dko) retinal cultures. Put plainly: ex vivo Dko retinal cultures incubated with atRAL (morphology, LDH). The note with it: Ret-NH2 30 μM or Apo 300 μM together with 30 μM atRAL, 6 h at 37° C, Dko retinas. The test is classed as cell-based. As for the experimental part: FIGS. 11(A-B) illustrate images showing retinal degeneration is induced by atRAL in ex vivo Dko retinal cultures. Retinas were removed from the eyecups of 4-wk-old Abca4^−/−Rdh8^−/− (Dko) mice and cultured for 16 h at 37° C. Retinas were then incubated further with/without 30 μM of atRAL in the presence/absence of experimental drugs for 6 h at 37° C. Vehicle (DMSO), retinylamine (Ret-NH2) at 30 μM, or apocynin (Apo) at 300 μM was applied together with atRAL. (A) Retinal morphology was examined after incubation with atRAL. […] Bars indicate SD (n=3). *P<0.05.
as §1

In test [4] the test system is RPE of wild type (WT) mice. The test can be described thus: two-photon imaging of retinosomes in WT mouse RPE. The test is classed as in vivo. The note with it: WT mice pre-treated with Ret-NH2, white light 5,000 lux before imaging, laser power reduced by 17%. As for the experimental part: To enhance the visibility of retinosomes, WT mice without any drug treatment or treated with Ret-NH2 were exposed to 5,000 lux of white light for 5-30 min, 1 to 3 h before imaging.
To assess the capabilities of our system to characterize the RPE and retina we imaged ex vivo eyes of mice with different genetic backgrounds. The brightest RPE images were obtained in Rpe65^−/− mice in response to 730 nm excitation (FIG. 17a). The brightly fluorescent granules correspond to enlarged retinosomes, which are a characteristic feature of the RPE only in Rpe65^−/− mice due to blockade of 11cisretinol synthesis. […] We also imaged and counted the neuronal nuclei in the ganglion cell layer at 0.6 mm eccentricity and found 2,500 nuclei per mm2 (FIG. 17d), which is smaller than previously reported about 7,000 per mm2 of combined ganglion and displaced amacrine cells in stained retina. This difference arises from: a) nuclei are free of fluorophores, and are only visible as dark structures against brighter cell bodies, which can lead to obstruction of the nuclei by axon bundles; b) not all the cell nuclei were at the same imaging depth; and c) the estimates of the area could be off by 40% because they were determined by comparing measurements of optic disk in en face TPM images to histological sections. […]

A further test deals with Abca4^−/−Rdh8^−/− mice. Put plainly: light-induced retinal degeneration in Abca4^−/−Rdh8^−/− mice, TPM and histology at day 7.

`CC1=C(/C=C/C(C)=C/C=C/C(C)=C/CN)C(C)(C)CCC1` [retinylamine]: the “protection of retinal morphology against atRAL-induced damage” value in test [1] (Ret-NH2 30 μM or apocynin 300 μM together with 30 μM atRAL) is “protected the ONL and INL”. The “prevention of atRAL-induced photoreceptor apoptosis (TUNEL staining)” value in test [1] (retinylamine 30 μM or apocynin 300 μM together with 30 μM atRAL, listed as Ret-NH2) was “protected the ONL and INL”. In addition, the “content of fluorescent retinyl esters in the eye” value in test [2] was “increases”. For the same compound, the “effect on atRAL-induced cell death rate (LDH assay)” value in test [3] is given as “reduced”. Besides, the “visibility of retinosomes in RPE” value in test [4] is listed as “more clearly visible”. Further, the “RPE autofluorescence appearance by TPM” value with Abca4^−/−Rdh8^−/− mice (730 nm and 850 nm excitation, day 7 after light, Ret-NH2 1 mg oral gavage, Apo 1 mg i.p.) is recorded as “increased fluorescence of retinosomes”. In the test with Abca4^−/−Rdh8^−/− mice (Ret-NH2 1 mg per mouse oral gavage 16 h before, or Apo 1 mg/mouse i.p. 30 min before 10,000 lx light for 60 min, day 7), the “light-induced retinal degeneration (retinal histology)” value is on record as “can be prevented; also recorded: conferred protection”.
